Assay results as given in ChEMBL document CHEMBL5726932, “Cyclopropanecarboxylic acid GPR120 modulators” (2018).

Target: T1, Free fatty acid receptor 4 (Homo sapiens, UniProt Q5NUL3)
T1 sequence (Q5NUL3 whole entry): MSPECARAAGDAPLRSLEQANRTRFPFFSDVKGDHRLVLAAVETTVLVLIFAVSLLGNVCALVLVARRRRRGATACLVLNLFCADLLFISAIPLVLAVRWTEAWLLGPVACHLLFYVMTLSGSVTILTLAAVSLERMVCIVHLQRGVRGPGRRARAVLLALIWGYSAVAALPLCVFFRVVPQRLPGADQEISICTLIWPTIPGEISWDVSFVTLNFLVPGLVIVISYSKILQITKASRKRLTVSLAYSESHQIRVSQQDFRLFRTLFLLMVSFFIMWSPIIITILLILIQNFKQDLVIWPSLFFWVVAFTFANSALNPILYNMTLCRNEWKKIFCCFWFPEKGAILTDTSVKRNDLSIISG
Test: GPR120 pERK assay: For the pERK assay, 3×10^6 cells/mL cryopreserved human and mouse cells were thawed rapidly in a 37° C. water bath and added to a T-225 flask containing 50 mL growth medium. The flasks were placed in a tissue culture incubator overnight (37° C., 5% CO2). The next day, cells were harvested with trypsin (Gibco Cat. #25300-054), resuspended in serum-containing growth medium and counted using a Cellometer and volume adjusted to a concentration of 0.5×10^6 cells/mL. Cells were plated into 384-well clear bottom tissue culture plates (BD Cat. #353962) at 50 μL/well, for a density of 25,000 cells/well using a MULTIDROP® and incubated for 16-18 hours (overnight) at 37° C. with 5% CO2. The next day, cells were washed once with 50 μL of PBS without Ca++/Mg++ (Gibco Cat. #14190-036) and serum starved in 25 μL of F-12 media without any serum or antibiotics for 2 hours at 37° C.Test compounds were 3-fold, 11-point serially diluted in DMSO in a REMP assay plate (Matrix Cat. #4307) by Tecan and 5 μL was transferred into an ECHO source plate (Labcyte Cat. #LC-0200). Cells were then stimulated with 40 nL of compound dilutions using ECHO liquid handler for 7 min at 37° C. […]

Row | EC50 | SMILES
1 | 6.84 µM | O=C(O)C1CC1COc1ccc(-c2ccccc2-c2ccccc2)cc1 (configuration not stated)
2 | 1.7 µM | O=C(O)C1CC1COc1ccc(-c2cccc(-c3ccccc3)c2)cc1 (configuration not stated)
